This passage reports TGI results from PubChem BioAssay (NCI).

Some test systems named below: 786-0 renal; A498 renal; DU-145 prostate; EKVX NSCLC; HOP-92 NSCLC; HS 578T breast; HT29 colon; MDA-N; NCI-H226 lung; NCI/ADR-RES ovarian; OVCAR-4 ovarian; OVCAR-5 ovarian; PC-3 prostate; RXF 393 renal; SK-MEL-28 melanoma; SK-MEL-5 melanoma; SNB-19 CNS; UACC-62 melanoma.
Holding throughout (assay): inhibition of tumour cell growth, NCI panel, 48 h

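Compound exposure: 48 hours, 5 concentrations, 96-well plates. Definition used: TGI = concentration required for complete inhibition of growth.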

As for `CC1=NN(c2cccc(S(=O)(=O)O)c2)C2(C1)C(Cl)C(=O)N2c1nc2ccccc2s1` (centres undefined), the TGI is 11.7 µM with 786-0 renal; 34 µM with A498 renal; 25.2 µM in the experiment on DU-145 prostate; 26.7 µM with EKVX NSCLC; 9.95 µM in the experiment with HOP-92 NSCLC; > 80.7 µM in the experiment on HS 578T breast. Moreover, the TGI is 22.2 µM in the experiment on HT29 colon; 27.7 µM in the experiment on MDA-N; 22.2 µM in the experiment with NCI-H226 lung; 26.8 µM in the experiment with NCI/ADR-RES ovarian; 14.9 µM in the experiment on OVCAR-4 ovarian; 28.1 µM in the experiment on OVCAR-5 ovarian. The TGI turned out to be 22.9 µM in the experiment with PC-3 prostate; 22.8 µM in the experiment with RXF 393 renal; 36.1 µM in the experiment with SK-MEL-28 melanoma; 18.8 µM in the experiment with SK-MEL-5 melanoma; 27 µM with SNB-19 CNS; 19.1 µM with UACC-62 melanoma.
Regarding `CC(C)C[C@H]1[C@@H](OCc2ccccc2)COS(=O)(=O)N1[C@H](C)c1ccccc1`, the TGI in the experiment on 786-0 renal, in the experiment with A498 renal, in the experiment on DU-145 prostate, in the experiment on EKVX NSCLC, with HOP-92 NSCLC and with HS 578T breast was > 100 µM in each case. The TGI with HT29 colon, in the experiment on MDA-N, in the experiment on NCI-H226 lung, in the experiment on NCI/ADR-RES ovarian, with OVCAR-4 ovarian and in the experiment with OVCAR-5 ovarian was > 100 µM in each case. The TGI in the experiment on PC-3 prostate is > 100 µM; in the experiment with RXF 393 renal, > 100 µM; in the experiment with SK-MEL-28 melanoma, > 100 µM; in the experiment with SK-MEL-5 melanoma it was > 64.4 µM; with SNB-19 CNS, > 100 µM; with UACC-62 melanoma it was > 100 µM.
Turning to `Cc1sc2nc(N(C)C)oc(=O)c2c1C`, the TGI in the experiment on 786-0 renal, in the experiment on A498 renal, with DU-145 prostate, in the experiment on EKVX NSCLC, in the experiment on HOP-92 NSCLC and with HS 578T breast was > 100 µM each time. The TGI in the experiment with HT29 colon, in the experiment with MDA-N, in the experiment on NCI-H226 lung, with NCI/ADR-RES ovarian, in the experiment with OVCAR-4 ovarian and in the experiment on OVCAR-5 ovarian was > 100 µM in each case. Further, the TGI in the experiment with PC-3 prostate, in the experiment with RXF 393 renal, in the experiment with SK-MEL-28 melanoma, in the experiment on SK-MEL-5 melanoma, in the experiment on SNB-19 CNS and with UACC-62 melanoma was > 100 µM each time.
Consider `Cc1ccc2c(c1)C(=O)C1(C2)Cc2c(C)cccc2C1=O` (centres undefined), for which the TGI with 786-0 renal, with A498 renal, with DU-145 prostate, with EKVX NSCLC, in the experiment on HOP-92 NSCLC and with HS 578T breast was > 100 µM throughout. Moreover, the TGI in the experiment on HT29 colon, in the experiment with MDA-N, in the experiment on NCI-H226 lung, in the experiment with NCI/ADR-RES ovarian, with OVCAR-4 ovarian and with OVCAR-5 ovarian was > 100 µM in each case. Moreover, the TGI in the experiment on PC-3 prostate, with RXF 393 renal, with SK-MEL-28 melanoma, in the experiment with SK-MEL-5 melanoma, in the experiment on SNB-19 CNS and with UACC-62 melanoma was > 100 µM each time.
On to `COC(=O)c1ccccc1/C=C1\Cc2c(ccc3c2CCC3)C1=O`, for which the TGI in the experiment with 786-0 renal, with A498 renal, in the experiment on DU-145 prostate, with EKVX NSCLC, in the experiment with HOP-92 NSCLC and in the experiment on HS 578T breast was > 100 µM throughout. Further, the TGI in the experiment with HT29 colon, in the experiment with MDA-N, with NCI-H226 lung, in the experiment with NCI/ADR-RES ovarian, in the experiment with OVCAR-4 ovarian and in the experiment on OVCAR-5 ovarian was > 100 µM each time. Besides, the TGI in the experiment with PC-3 prostate, in the experiment with RXF 393 renal, with SK-MEL-28 melanoma, with SK-MEL-5 melanoma, with SNB-19 CNS and in the experiment with UACC-62 melanoma was > 100 µM each time.
On to `CCOc1cccc(C=Nc2ccccc2SSc2ccccc2N=Cc2cccc(OCC)c2O)c1O`, for which the TGI was 19.8 µM in the experiment with 786-0 renal; 44 µM in the experiment on A498 renal; 30.9 µM in the experiment on DU-145 prostate; 19 µM in the experiment on EKVX NSCLC; 33.3 µM in the experiment on HOP-92 NSCLC; 90.7 µM in the experiment on HS 578T breast. The TGI in the experiment with HT29 colon was 28.9 µM; in the experiment with MDA-N, 37.7 µM; in the experiment with NCI-H226 lung, 22.5 µM; with NCI/ADR-RES ovarian, > 100 µM; in the experiment on OVCAR-4 ovarian, 14.3 µM; in the experiment with OVCAR-5 ovarian, 14.6 µM. Moreover, the TGI in the experiment with PC-3 prostate is 12.8 µM; with RXF 393 renal it was 34.9 µM; in the experiment with SK-MEL-28 melanoma, 26.2 µM; in the experiment with SK-MEL-5 melanoma, 7.58 µM; with SNB-19 CNS, 47.4 µM; in the experiment on UACC-62 melanoma it was 22 µM.
Turning to `C[N+]12CCCCC1C(COc1cccc3cccnc13)CCC2` (centres undefined), the TGI with 786-0 renal, in the experiment with A498 renal, with DU-145 prostate, with EKVX NSCLC, with HOP-92 NSCLC and in the experiment on HS 578T breast was > 100 µM throughout. Besides, the TGI with HT29 colon, in the experiment with MDA-N, with NCI-H226 lung, in the experiment with NCI/ADR-RES ovarian, with OVCAR-4 ovarian and with OVCAR-5 ovarian was > 100 µM throughout. The TGI in the experiment on PC-3 prostate, in the experiment with RXF 393 renal, with SK-MEL-28 melanoma, in the experiment with SK-MEL-5 melanoma, with SNB-19 CNS and in the experiment on UACC-62 melanoma was > 100 µM each time.
As for `O=C1c2c(Br)sc(Br)c2C(NC(=O)C(F)(F)F)C1O` (centres undefined), the TGI was 36.7 µM with 786-0 renal; > 100 µM with A498 renal; 39.4 µM in the experiment on DU-145 prostate; 39.5 µM in the experiment with EKVX NSCLC; 35.9 µM in the experiment with HOP-92 NSCLC; > 100 µM in the experiment with HS 578T breast. The TGI with HT29 colon is 53.6 µM; with MDA-N, 40.4 µM; in the experiment on NCI-H226 lung, 79.8 µM; in the experiment on NCI/ADR-RES ovarian it was 75.2 µM; in the experiment on OVCAR-4 ovarian, 34.8 µM; with OVCAR-5 ovarian, 39.6 µM. For the same molecule, the TGI was 74.9 µM in the experiment with PC-3 prostate; 27.5 µM with RXF 393 renal; 43.7 µM in the experiment on SK-MEL-28 melanoma; 36 µM in the experiment with SK-MEL-5 melanoma; 56.4 µM in the experiment with SNB-19 CNS; 40.8 µM with UACC-62 melanoma.
